Laboratory results: PubChem BioAssay (NCI)
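Each compound was tested at five concentrations against cells in 96-well plates for 48 hours. GI50 is the concentration that inhibits growth by half. The concentration for full growth arrest is given as TGI.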

Columns and labels:
Assay in all cases: DTP human tumour cell line panel, 48 h
[1] = system: SK-MEL-28 melanoma
[2] = system: COLO 205 colon
[3] = system: SK-OV-3 ovarian
[4] = system: UO-31 renal
[5] = system: BT-549 breast
[6] = system: PC-3 prostate
[7] = system: SNB-75 CNS
[8] = system: SF-295 CNS
[9] = system: ACHN renal
[10] = system: 786-0 renal
[11] = system: HOP-62 NSCLC
[12] = system: SN12C renal
[13] = system: HS 578T breast
[14] = system: OVCAR-4 ovarian
[15] = system: K-562 leukemia
[16] = system: NCI-H460 lung
[17] = system: SNB-19 CNS
[18] = system: MDA-MB-435
[19] = system: T-47D breast
[20] = system: UACC-257 melanoma
[21] = system: CCRF-CEM leukemia
[22] = system: MOLT-4 leukemia
[23] = system: SR leukemia
[24] = system: SF-539 CNS
[25] = system: HCC-2998 colon
[26] = system: OVCAR-3 ovarian
[27] = system: HCT-15 colon
[28] = system: TK-10 renal
[29] = system: SW-620 colon
[30] = system: HT29 colon
[31] = system: NCI-H522 lung
[32] = system: DU-145 prostate
[33] = system: A549 NSCLC
[34] = system: EKVX NSCLC
[35] = system: HL-60(TB) leukemia
[36] = system: NCI-H226 lung
[37] = system: HCT-116 colon
[38] = system: NCI/ADR-RES ovarian
[39] = system: RXF 393 renal
[40] = system: OVCAR-8 ovarian
[41] = system: IGROV1 ovarian
[42] = system: KM12 colon
[43] = system: MCF7 breast
[44] = system: SK-MEL-5 melanoma
[45] = system: UACC-62 melanoma
[46] = system: CAKI-1 renal
[47] = system: SF-268 CNS
[48] = system: M14 melanoma
[49] = system: MDA-MB-231 breast
[50] = system: NCI-H23 lung
[51] = system: RPMI-8226 leukemia
[52] = system: HOP-92 NSCLC
[53] = system: LOX IMVI melanoma
[54] = system: U251 CNS
[55] = system: MALME-3M melanoma
[56] = system: OVCAR-5 ovarian
[57] = system: A498 renal
[58] = system: SK-MEL-2 melanoma

## COc1ccc(N2C(=O)C3c4[nH]c5ccc(C)cc5c4C4CCC(C(C)(C)C)CC4C3C2=O)cc1 (stereo not given)
[1]
  TGI: 33.3 µM
[2]
  TGI: > 100 µM
[3]
  TGI: 29.5 µM
[4]
  TGI: 40.3 µM
[5]
  TGI: 67.9 µM
[6]
  TGI: > 100 µM
[7]
  TGI: 7.7 µM
[8]
  TGI: 23.3 µM
[9]
  TGI: 25.5 µM
[10]
  TGI: 48.7 µM
[11]
  TGI: 33.4 µM
[12]
  TGI: > 100 µM
[13]
  TGI: 9.89 µM
[14]
  TGI: 10.8 µM
[15]
  TGI: 41.2 µM
[16]
  TGI: 49.3 µM
[17]
  TGI: 62.6 µM
[18]
  TGI: > 100 µM
[19]
  TGI: > 100 µM
[20]
  TGI: 77.8 µM
[21]
  TGI: 16.7 µM
[22]
  TGI: 34.9 µM
[23]
  TGI: 32.4 µM
[24]
  TGI: 36.5 µM
[25]
  TGI: > 100 µM
[26]
  TGI: 32 µM
[27]
  TGI: > 100 µM
[28]
  TGI: 45.1 µM
[29]
  TGI: 69.8 µM
[30]
  TGI: > 100 µM
[31]
  TGI: > 100 µM
[32]
  TGI: > 100 µM
[33]
  TGI: > 100 µM
[34]
  TGI: > 100 µM
[35]
  TGI: > 100 µM
[36]
  TGI: 48.9 µM
[37]
  TGI: 40.5 µM
[38]
  TGI: 33.2 µM
[39]
  TGI: 38.8 µM
[40]
  TGI: 25.1 µM
[41]
  TGI: > 100 µM
[42]
  TGI: > 100 µM
[43]
  TGI: > 100 µM
[44]
  TGI: > 100 µM
[45]
  TGI: 29.7 µM
[46]
  TGI: 23.7 µM
[47]
  TGI: 64.5 µM
[48]
  TGI: 34.3 µM
[49]
  TGI: > 100 µM
[50]
  TGI: 86.5 µM
[51]
  TGI: 82.1 µM

## CC(=O)OC1Oc2ccccc2-c2oc(=O)c(-c3cc4ccc(N(C)C)cc4oc3=O)cc21 (stereo not given)
[1]
  GI50: 19.9 µM
  TGI: 56.4 µM
[2]
  GI50: 16.4 µM
  TGI: 41.5 µM
[3]
  GI50: 13 µM
  TGI: 45.5 µM
[4]
  GI50: 16.9 µM
  TGI: 48.8 µM
[52]
  GI50: 4.8 µM
  TGI: 23.3 µM
[5]
  GI50: 3.67 µM
  TGI: 20.7 µM
[6]
  GI50: 10.5 µM
  TGI: 32.6 µM
[7]
  GI50: 9.9 µM
  TGI: 25.4 µM
[8]
  GI50: 4.57 µM
  TGI: 21 µM
[53]
  GI50: 10.4 µM
  TGI: 23 µM
[9]
  GI50: 10.4 µM
  TGI: 23.2 µM
[10]
  GI50: 15.7 µM
  TGI: 39.3 µM
[11]
  GI50: 4.63 µM
  TGI: 25.4 µM
[54]
  GI50: 10.5 µM
  TGI: 23.7 µM
[12]
  GI50: 19.9 µM
  TGI: 69.6 µM
[13]
  GI50: 4.56 µM
  TGI: 26.1 µM
[14]
  GI50: 1290 nM
  TGI: 24 µM
[15]
  GI50: 2980 nM
  TGI: > 100 µM
[16]
  GI50: 11.8 µM
  TGI: 33.1 µM
[17]
  GI50: 13.1 µM
  TGI: 36 µM
[18]
  GI50: 13.3 µM
  TGI: 46.8 µM
[19]
  GI50: 4.34 µM
  TGI: 30.1 µM
[55]
  GI50: 3.7 µM
  TGI: 11.1 µM
[20]
  GI50: 10.2 µM
  TGI: 43.3 µM
[21]
  GI50: 2890 nM
  TGI: 24.2 µM
[22]
  GI50: 2530 nM
  TGI: 18.1 µM
[56]
  GI50: 13.2 µM
  TGI: 30.8 µM
[23]
  GI50: 1750 nM
  TGI: 14.5 µM
[24]
  GI50: 12.4 µM
  TGI: 27.3 µM
[26]
  GI50: 10.1 µM
  TGI: 23.2 µM
[27]
  GI50: 24.3 µM
  TGI: > 100 µM
[28]
  GI50: 5.4 µM
  TGI: 19.5 µM
[29]
  GI50: 20.6 µM
  TGI: > 100 µM
[30]
  GI50: 22 µM
  TGI: > 100 µM
[31]
  GI50: 11.9 µM
  TGI: 30.6 µM
[32]
  GI50: 12 µM
  TGI: 27.7 µM
[33]
  GI50: 12.5 µM
  TGI: 36.9 µM
[34]
  GI50: 1780 nM
  TGI: 22.2 µM
[35]
  GI50: 8.16 µM
  TGI: > 100 µM
[36]
  GI50: 11.2 µM
  TGI: 28.3 µM
[37]
  GI50: 1420 nM
  TGI: 21.7 µM
[38]
  GI50: 6.11 µM
  TGI: 34.7 µM
[57]
  GI50: 6.91 µM
  TGI: 26.5 µM
[39]
  GI50: 3.54 µM
  TGI: 15.2 µM
[40]
  GI50: 10.3 µM
  TGI: 37.7 µM
[58]
  GI50: 8.61 µM
  TGI: 29.9 µM
[41]
  GI50: 14.6 µM
  TGI: 36.9 µM
[42]
  GI50: 13.7 µM
  TGI: 30.6 µM
[43]
  GI50: 10.2 µM
  TGI: 29.8 µM
[44]
  GI50: 3.46 µM
  TGI: 15.4 µM
[45]
  GI50: 14.3 µM
  TGI: 29.5 µM
[46]
  GI50: 14.9 µM
  TGI: > 100 µM
[47]
  GI50: 10.6 µM
  TGI: 32.2 µM
[48]
  GI50: 17.9 µM
  TGI: 66.1 µM
[49]
  GI50: 13 µM
  TGI: 32.1 µM
[50]
  GI50: 10.6 µM
  TGI: 23.7 µM
[51]
  GI50: 392 nM
  TGI: 15 µM
